# Values quoted from earlier work, collected in PMC9603901, “Therapeutic Potential of Antimicrobial Peptide PN5 against Multidrug-Resistant E. coli and Anti-Inflammatory Activity in a Septic Mouse Model” (Microbiology Spectrum, 2022).
# Assays:
# Parameters in all cases: method as in Asan hospital; key to susceptibility category: S: susceptible; R: resistant; I: intermediate
# [1] = tested on: MDR E. coli ASEC 9; settings: ref Asan hospital, cited from earlier work; for MIC: ASEC 9 (ESBL), resistance information of clinical isolate; for susceptibility category: ASEC 9
# [2] = tested on: MDR E. coli ASEC 2; settings: ref Asan hospital, cited from earlier work; for MIC: ASEC 2 (NDM-7), resistance information of clinical isolate; for susceptibility category: ASEC 2
# [3] = tested on: MDR E. coli ASEC 17; settings: ref Asan hospital, cited from earlier work; for MIC: ASEC 17 (AmpC), resistance information of clinical isolate; for susceptibility category: ASEC 17
# [4] = tested on: MDR E. coli ASEC 6; settings: ref Asan hospital, cited from earlier work; for MIC: ASEC 6 (ESBL), resistance information of clinical isolate; for susceptibility category: ASEC 6
# [5] = tested on: MDR E. coli ASEC 15; settings: ref Asan hospital, cited from earlier work; for MIC: ASEC 15 (AmpC), resistance information of clinical isolate; for susceptibility category: ASEC 15
# [6] = tested on: MDR E. coli ASEC 8; settings: ref Asan hospital, cited from earlier work; for MIC: ASEC 8 (ESBL), resistance information of clinical isolate; for susceptibility category: ASEC 8
# [7] = tested on: MDR E. coli ASEC 7; settings: ref Asan hospital, cited from earlier work; for MIC: ASEC 7 (ESBL), resistance information of clinical isolate; for susceptibility category: ASEC 7
# [8] = tested on: MDR E. coli ASEC 1; settings: ref Asan hospital, cited from earlier work; for MIC: ASEC 1 (carbapenemase NDM-1), resistance information of clinical isolate; for susceptibility category: ASEC 1
# [9] = tested on: MDR E. coli ASEC 5; settings: ref Asan hospital, cited from earlier work; for MIC: ASEC 5 (ESBL), resistance information of clinical isolate; for susceptibility category: ASEC 5
# [10] = tested on: MDR E. coli ASEC 13; settings: ref Asan hospital, cited from earlier work; for MIC: ASEC 13 (AmpC), resistance information of clinical isolate; for susceptibility category: ASEC 13
# [11] = tested on: MDR E. coli ASEC 14; settings: ref Asan hospital, cited from earlier work; for MIC: ASEC 14 (AmpC), resistance information of clinical isolate; for susceptibility category: ASEC 14
# [12] = tested on: MDR E. coli ASEC 18; settings: ref Asan hospital, cited from earlier work; for MIC: ASEC 18 (AmpC), resistance information of clinical isolate; for susceptibility category: ASEC 18
# [13] = tested on: MDR E. coli ASEC 16; settings: ref Asan hospital, cited from earlier work; for MIC: ASEC 16 (AmpC), resistance information of clinical isolate; for susceptibility category: ASEC 16
# [14] = tested on: MDR E. coli ASEC 19; settings: ref Asan hospital, cited from earlier work; for MIC: ASEC 19 (AmpC), resistance information of clinical isolate; for susceptibility category: ASEC 19
# [15] = tested on: MDR E. coli ASEC 10; settings: ref Asan hospital, cited from earlier work; for MIC: ASEC 10 (ESBL), resistance information of clinical isolate; for susceptibility category: ASEC 10
# [16] = tested on: MDR E. coli ASEC 12; settings: ref Asan hospital, cited from earlier work; for MIC: ASEC 12 (AmpC), resistance information of clinical isolate; for susceptibility category: ASEC 12
# [17] = tested on: MDR E. coli ASEC 3; settings: ref Asan hospital, cited from earlier work; for MIC: ASEC 3 (NDM-5), resistance information of clinical isolate; for susceptibility category: ASEC 3
# [18] = tested on: MDR E. coli ASEC 4; settings: ref Asan hospital, cited from earlier work; for MIC: ASEC 4 (ESBL), resistance information of clinical isolate; for susceptibility category: ASEC 4
# [19] = tested on: MDR E. coli ASEC 11; settings: ref Asan hospital, cited from earlier work; for MIC: ASEC 11 (ESBL), resistance information of clinical isolate; for susceptibility category: ASEC 11
Compound,MIC [1],susceptibility category [1],MIC [2] [µg/mL],susceptibility category [2],MIC [3],susceptibility category [3],MIC [4] [µg/mL],susceptibility category [4],MIC [5],susceptibility category [5],MIC [8],susceptibility category [8],MIC [9] [µg/mL],susceptibility category [9],MIC [10] [µg/mL],susceptibility category [10],MIC [16] [µg/mL],susceptibility category [16],MIC [18] [µg/mL],susceptibility category [18],other results
CO[C@@]1(NC(=O)Cc2cccs2)C(=O)N2C(C(=O)O)=C(COC(N)=O)CS[C@@H]21 [Cefoxitin],16 µg/mL,I,> 16,R,> 16 µg/mL,R,> 16,R,> 16 µg/mL,R,> 16 µg/mL,R,> 16,R,> 16,R,> 16,R,> 16,R,MIC [6]: <= 8 μg mL-1; susceptibility category [6]: S; MIC [7]: <= 8 μg mL-1; susceptibility category [7]: S; MIC [11]: > 16 µg/mL; susceptibility category [11]: R; MIC [12]: > 16 µg/mL; susceptibility category [12]: R; MIC [13]: > 16 µg/mL; susceptibility category [13]: R; MIC [14]: > 16 µg/mL; susceptibility category [14]: R; MIC [15]: <= 8 μg mL-1; susceptibility category [15]: S; MIC [17]: > 16 µg/mL; susceptibility category [17]: R; MIC [19]: <= 8 μg mL-1; susceptibility category [19]: S
CO/N=C(\C(=O)N[C@@H]1C(=O)N2C(C(=O)O)=C(CSc3nc(=O)c(=O)[nH]n3C)CS[C@H]12)c1csc(N)n1 [Ceftriaxone],–,–,–,–,–,–,> 32,R,–,–,> 32 µg/mL,R,> 32,R,> 32,R,> 32,R,> 32,R,–
C[C@@H](O)[C@H]1C(=O)N2C(C(=O)O)=C(SCCN=CN)C[C@H]12 [Imipenem],<= 1 μg mL-1,S,8,R,<= 1 μg mL-1,S,> 8,R,<= 1 μg mL-1,S,<= 4 μg mL-1,R,> 8,R,> 8,R,> 8,R,> 8,R,MIC [6]: <= 1 μg mL-1; susceptibility category [6]: S; MIC [7]: <= 1 μg mL-1; susceptibility category [7]: S; MIC [11]: 8 µg/mL; susceptibility category [11]: R; MIC [12]: <= 1 μg mL-1; susceptibility category [12]: S; MIC [13]: <= 1 μg mL-1; susceptibility category [13]: S; MIC [14]: <= 1 μg mL-1; susceptibility category [14]: S; MIC [15]: <= 1 μg mL-1; susceptibility category [15]: S; MIC [17]: > 8 µg/mL; susceptibility category [17]: R; MIC [19]: <= 1 μg mL-1; susceptibility category [19]: S
